Measurements taken from patent US8444988B2, “Cancer treatment method” (GlaxoSmithKline LLC, priority 2001, dated 2013).

Columns and labels:
Format in all cases: in vivo
[1] = test system: HN5 (human head and neck tumor line); assay: HN5 subcutaneous human xenograft mouse model, anti-tumor activity; conditions: monotherapy, at highest dose; HN5 s.c. xenograft; FIG. 1
Description: HN5 cells were cultured in RPMI 1640+10% Fetal bovine serum, Sodium pyruvate and L-Glutamine at 37° in a 95/5% air/CO2 atmosphere. Cells were harvested following trypsin digestion and brought to a density of 2×10^6 cells/200 μl in PBS. Tumors were initiated by injection of the cell suspension subcutaneously in the axillary region.
For the xenograft models used here solid tumors were measured by electronic caliper measurement through the skin, measurements were typically made twice weekly. In the examples presented, tumors were monitored beyond the duration of therapy
Drugs were administered by P.O. or IV. routes. The title compound or salt thereof of Example 1 was formulated in aqueous 0.5% hydroxypropyl methylcellulose, 0.1% Tween 80 and administered as a suspension twice daily for 21 days as indicated in the respective figures. TAXOL® (paclitaxel) (Bristol Myers Squibb Co.) was purchased preformulated in Cremophor-EL saline and diluted into saline to a final Cremophor-EL concentration of 5 or 10% Cremophor-EL for 10 or 20 mg/kg TAXOL® (paclitaxel) therapy respectively. TAXOL® (paclitaxel) was administered IV., once a day, for 5 days (days 1-5 of Example 1 therapy) as indicated in the respective figures. […]

[2] = test system: NCI H322 (human lung tumor line); assay: NCI H322 subcutaneous human xenograft mouse model, anti-tumor activity; conditions: monotherapy; NCI H322 s.c. xenograft; FIG. 3
Description: Cells were harvested following trypsin digestion and brought to a density of 2×10^6 cells/200 μl in PBS. Tumors were initiated by injection of the cell suspension subcutaneously in the axillary region. In addition some experiments were performed following serial transplantation of tumor fragments in SCID mice. Tumors were initiated by injection of tumor fragments subcutaneously in the axillary region.

[3] = test system: BT474 (human breast tumor line); assay: BT474 subcutaneous human xenograft mouse model, anti-tumor activity; conditions: monotherapy (Example 1 at the highest dose tested); BT474 s.c. xenograft; FIG. 2
Description: The BT474 xenograft was maintained by serial transplantation in SCID mice. Tumors are initiated by injection of tumor fragments subcutaneously in the axillary region.
Drugs were administered by P.O. or IV. routes. The title compound or salt thereof of Example 1 was formulated in aqueous 0.5% hydroxypropyl methylcellulose, 0.1% Tween 80 and administered as a suspension twice daily for 21 days as indicated in the respective figures. TAXOL® (paclitaxel) (Bristol Myers Squibb Co.) was purchased preformulated in Cremophor-EL saline and diluted into saline to a final Cremophor-EL concentration of 5 or 10% Cremophor-EL for 10 or 20 mg/kg TAXOL® (paclitaxel) therapy respectively. TAXOL® (paclitaxel) was administered IV., once a day, for 5 days (days 1-5 of Example 1 therapy) as indicated in the respective figures. Carboplatin (Sigma) was formulated in saline and was administered I.V., once a day, for two 5 day periods as indicated in the respective figure (days 1-5 and 15-19 of Example 1 therapy).

Compound	tumor growth inhibition [1]	tumor growth inhibition [2]	tumor growth inhibition [3]
CS(=O)(=O)CCNCc1ccc(-c2ccc3ncnc(Nc4ccc(OCc5cccc(F)c5)c(Cl)c4)c3c2)o1 [Example 1, N-{3-Chloro-4-[(3-fluorobenzyl)oxy]phenyl}-6-[5-({[2-(methylsulfonyl)ethyl]amino}methyl)-2-furyl]-4-quinazolinamine]	about 80%	100-130%	about 90%
N.N.O=C([O-])C1(C(=O)[O-])CCC1.[Pt+2] [Carboplatin, platinum, diammine [1,1-cyclobutane-dicarboxylate(2-)-O,O′]]	about 45%	–	–
CC(=O)O[C@H]1C(=O)[C@@]2(C)[C@H]([C@H](OC(=O)c3ccccc3)[C@]3(O)C[C@H](OC(=O)[C@H](O)[C@@H](NC(=O)c4ccccc4)c4ccccc4)C(C)=C1C3(C)C)[C@]1(OC(C)=O)CO[C@@H]1C[C@@H]2O [TAXOL® (paclitaxel), 5β,20-epoxy-1,2α,4,7β,10β,13α-hexa-hydroxytax-11-en-9-one 4,10-diacetate 2-benzoate 13-ester with (2R,3S)-N-benzoyl-3-phenylisoserine]	–	about 45%	about 45%
